Assay results published in US12187722B2, “Small molecule inhibitors of TEAD transcription factors” (The General Hospital Corporation, priority 2019, dated 2025).
Several values for one entry are separate records, joined by “and”; a condition that tells them apart may be missing. Equal entries are not always repeated. Where two headings read alike, the source gives them in different places.

Key:
TEAD2 [1] = target: T1, TEAD2 (Homo sapiens (Human), UniProt Q15562); assay: In vitro palmitoylation (TEAD2 autopalmitoylation, streptavidin blot); type: biochemical; conditions: compound at 10 μM
T1 sequence (Q15562 whole entry): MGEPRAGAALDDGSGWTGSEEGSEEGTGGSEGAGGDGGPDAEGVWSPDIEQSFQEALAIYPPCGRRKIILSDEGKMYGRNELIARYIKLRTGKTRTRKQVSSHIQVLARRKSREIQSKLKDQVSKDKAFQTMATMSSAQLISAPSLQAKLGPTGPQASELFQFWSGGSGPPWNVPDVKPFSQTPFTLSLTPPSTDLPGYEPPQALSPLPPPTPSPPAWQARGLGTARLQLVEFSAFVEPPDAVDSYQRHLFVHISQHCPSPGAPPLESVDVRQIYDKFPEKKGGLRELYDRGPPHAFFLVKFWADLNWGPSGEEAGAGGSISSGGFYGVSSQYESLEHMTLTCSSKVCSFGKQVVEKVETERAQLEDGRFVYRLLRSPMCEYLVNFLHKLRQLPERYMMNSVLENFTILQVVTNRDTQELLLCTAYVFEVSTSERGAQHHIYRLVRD
Procedure, shortened: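 Recombinant GST- or His6-TEAD2 (500 ng) preincubated 15 min with compound, then 30 min with 1 μM alkyne palmitoyl-CoA; click-labelled with biotin-azide (1 h, RT). Streptavidin-HRP blot band intensity quantified after SDS-PAGE; inhibition of autopalmitoylation relative to DMSO control.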

TEAD2 [2] = target: T1, TEAD2; assay: CMP assay (CPM fluorescence detection of free CoA); type: biochemical
Experimental: 7-Diethylamino-3-(4′-Maleimidylphenyl)-4-Methylcoumarin (CPM), which reacts with thiol of CoA liberated in the enzymatic reaction, and gives fluorescent signal (excitation ˜350-380, emission-460-480). The assay detects the product (free CoA) which is produced from palmitoyl-CoA as a method to detect the enzymatic activity. Test compounds that inhibit TEAD activity are therefore able to block the CMP fluorescent signal.
TEAD2/4 protein (10 μL of a 50 ng/μL solution) and a solution the test compound (0.5 μL, variable concentration) were pre-incubated for 30 min at r.t. A mixture prepared from MES pH 6.4 buffer (6.5 μL of a 50 mM solution), EDTA (1 μL of a 20 mM solution), palmitoyl-CoA (1 μL of a 20 μM solution), and 7-diethylamino-3-(4′-maleimidylphenyl)-4-methylcoumarin (1 μL of a 10 μM solution) was added and the resulting mixture was mixed well using a pipette. The solution was then incubated at r.t. for 30-120 min. in the dark, and fluorescence was detected at […] every 30 min. until the fluorescence signal is saturated. An IC50 for the ability of the compound to inhibit fluorescence is calculated from the results.

[3] = Table 3, unit inferred, read-out: TEAD2 palmitoylation IC50
[4] = Table 2, read-out: IC50 μM (CMP assay)

| Compound | inhibition at 10 µM (TEAD2 [1]; Table 3) [%] | IC50 (TEAD2 [2]; [3]) [µM] | inhibition at 10 µM (TEAD2 [1]; Table 2) [%] | IC50 (TEAD2 [2]; [4]) [µM] | further results |
| --- | --- | --- | --- | --- | --- |
| COc1ccc(Nc2ccc(N(C)c3ccc(C4CCCCC4)cc3)cc2F)c(C(=O)O)c1 [CP-549] | 85 | 2.4 |  |  |  |
| COc1ccc(Nc2ccc(N(C)c3ccc(C45CC6CC(CC(C6)C4)C5)cc3)cc2C)c(C(=O)O)c1 [CP-551] | 91 | 0.002 |  |  |  |
| COc1ccc(Nc2ccc(N(C)c3ccc(OCC(F)(F)F)cc3)cc2)c(C(=O)O)c1 [CP-553] | 100 | 0.59 |  |  |  |
| COc1ccc(Nc2ccc(N(C)c3ccc(C)cc3)cc2)c(C(=O)O)c1 [CP-554] | 96 | 0.01 |  |  |  |
| COc1ccc(Nc2ccc(N(C)c3ccc(N4CCCCC4)cc3)cc2)c(C(=O)O)c1 [CP-555] | 100 | 0.01 |  |  |  |
| COc1ccc(Nc2ccc(N(C)c3ccc(C4CCCCC4)cc3)cc2C)c(C(=O)O)c1 [CP-560] | 90 | 0.011 |  |  |  |
| COc1ccc(Nc2ccc(N(C)c3ccc(OCC(F)(F)F)cc3)cc2C)c(C(=O)O)c1 [CP-565] | 100 | 0.51 |  |  |  |
| O=C(O)c1ccccc1Nc1ccc(Oc2ccc(C3CCCCC3)cc2Cl)nc1 [CP-566] | 99 | 0.38 |  |  |  |
| COc1ccc(Nc2ccc(Oc3ccc(C45CC6CC(C)(CC(C)(C6)C4)C5)cc3Cl)cc2F)c(C(=O)O)c1 [CP-570] | 73 | 0.65 |  |  |  |
| COc1ccc(Nc2ccc(N(C)c3ccc(S(F)(F)(F)(F)F)cc3)cc2C)c(C(=O)O)c1 [CP-571] | 94 | 0.36 |  |  |  |
| COc1ccc(Nc2ccc(N(C)c3ccc(C4CCC(C)CC4)cc3)cc2)c(C(=O)O)c1 (stereo not shown) [CP-583] |  | 0.23 |  |  | % of inhibition of TEAD2 palmitoylation at 10 μM (TEAD2 [1]; Table 3): 96% |
| COc1ccc(Nc2ccc(N(C)c3ccc(C4CCC(C)CC4)cc3)cc2)c(C(=O)O)c1 (stereo not shown) [CP-584] |  | 0.21 |  |  | % of inhibition of TEAD2 palmitoylation at 10 μM (TEAD2 [1]; Table 3): 85% |
| COc1ccc(Nc2ccc(N(C)c3ccc(C4CC5CCC4C5)cc3)cc2F)c(C(=O)O)c1 (stereo not shown) [CP-585] | 86 | 0.32 |  |  |  |
| COc1ccc(Nc2ccc(N(C)c3ccc(OC(F)(F)F)cc3)cc2F)c(C(=O)O)c1 [CP-589] | 97 | 1.57 |  |  |  |
| COc1ccc(Nc2ccc(N(C)c3ccc(OC(F)(F)F)cc3)cc2C)c(C(=O)O)c1 [CP-590] | 96 | 0.22 |  |  |  |
| COc1ccc(Nc2ccc(N(C)c3ccc(C4CCC(C)(C)CC4)cc3)cc2)c(C(=O)O)c1 [CP-593] | 78 | 0.03 |  |  |  |
| COc1ccc(Nc2ccc(N(C)c3ccc(C4CCCCC4)cc3)nc2)c(C(=O)O)c1 [CP-598] | 74 | 0.05 |  |  |  |

| Compound | inhibition at 10 µM (TEAD2 [1]; Table 3) [%] | IC50 (TEAD2 [2]; [3]) [µM] | inhibition at 10 µM (TEAD2 [1]; Table 2) [%] | IC50 (TEAD2 [2]; [4]) [µM] | further results |
| --- | --- | --- | --- | --- | --- |
| Cc1cc(N(C)c2ccc(C3CCCCC3)cc2)ccc1Nc1ccc(OC2CC2)cc1C(=O)O [CP-619] | 96 | 0.75 |  |  |  |
| COc1ccc(Nc2ccc(N(C)c3ccc(C4CCCCC4)cc3)cc2C2CC2)c(C(=O)O)c1 [CP-626] | 87 | 0.382 |  |  |  |
| O=C(O)c1ccccc1Nc1ccc(Nc2ccc(C34CC5CC(CC(C5)C3)C4)cc2Cl)cc1 [Compound 31] |  |  | 99 | 0.377 | % of inhibition of TEAD2 palmitoylation at 10 μM (TEAD2 [1]; Table 2): 84% and 82% |
| O=C(O)c1cccc(Nc2ccc(Nc3ccc(C45CC6CC(CC(C6)C4)C5)cc3Cl)cc2)n1 [Compound 90] |  |  | 98 | 0.446 |  |
| CN(c1ccc(N(C)c2ccccc2C(=O)O)cc1)c1ccc(C23CC4CC(CC(C4)C2)C3)cc1 [Compound 100] |  |  | 100 | 0.207 |  |
| CN(c1ccc(N(C)c2ncccc2C(=O)O)cc1)c1ccc(C23CC4CC(CC(C4)C2)C3)cc1Cl [Compound 109] |  |  | 100 | 0.346 |  |
| O=C(O)c1cccnc1Nc1cnn(Cc2ccc(C34CC5CC(CC(C5)C3)C4)cc2Cl)c1 [Compound 112] |  |  | 100 | 0.268 |  |
| O=C(O)c1cccc(Nc2cc(Nc3ccc(C45CC6CC(CC(C6)C4)C5)cc3Cl)cc(C(F)(F)F)c2)n1 [Compound 119] |  |  | 100 | 0.106 |  |
| CN(c1ccc(Nc2ccc(C34CC5CC(CC(C5)C3)C4)cc2Cl)cc1)c1ncccc1C(=O)O [Compound 125] |  |  | 96 | 0.771 |  |
| CN(c1ccc(N(C)c2ncccc2C(=O)O)cc1)c1ccc(C23CC4CC(CC(C4)C2)C3)cc1 [Compound 139] |  |  | 95 | 0.312 |  |
| CN(c1ccc(Oc2ccc(C34CC5CC(CC(C5)C3)C4)cc2Cl)cc1)c1ccccc1C(=O)O [Compound 168] |  |  | 97 | 0.173 |  |
| CN(c1ccc(N(C)c2ccccc2C(=O)O)cc1)c1ccc(C23CC4CC(C)(CC(C)(C4)C2)C3)cc1 [Compound 178] |  |  | 100 | 0.227 |  |
| COc1ccc(Nc2ccc(N(C)c3ccc(C45CC6CC(CC(C6)C4)C5)cc3)cc2)c(C(=O)O)c1 [Compound 250] |  |  | 89 | 0.274 |  |
| O=C(O)c1cccnc1Nc1ccc(Oc2ccc(C34CC5CC(CC(C5)C3)C4)cc2Cl)cc1 [Compound 252] |  |  | 100 | 0.053 |  |
| CC12CC3CC(C)(C1)CC(c1ccc(Oc4ccc(Nc5ccccc5C(=O)O)cc4)c(Cl)c1)(C3)C2 [Compound 253] |  |  | 100 | 0.099 |  |
| CC12CC3CC(C)(C1)CC(c1ccc(Oc4ccc(Nc5ncccc5C(=O)O)cc4)c(Cl)c1)(C3)C2 [Compound 254] |  |  | 100 | 0.297 |  |
